Test results taken from the supplement of paper PMC10307832.

Tests used:
Test in all cases: relative viability (nuclei count vs DMSO), 5 days (fraction); higher = more cells survive
Bexarotene + Luminespib = compound: C=C(c1ccc(C(=O)O)cc1)c1cc2c(cc1C)C(C)(C)CCC2(C)C [Bexarotene] + CCNC(=O)c1noc(-c2cc(C(C)C)c(O)cc2O)c1-c1ccc(CN2CCOCC2)cc1 [Luminespib] (partner 0.01 µM)
Summary of the method: (§1)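 Lung cancer cell lines in 1536-well plates got either a single drug or a fixed anchor-drug dose together with five library-drug doses (not always all listed) in √10 steps, by pin tool, on the day after seeding. Nuclei were counted after 5 days, and relative viability is the treated-to-vehicle ratio of nuclei counts. Values are medians of duplicate plates.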

Bexarotene + Bortezomib = compound: C=C(c1ccc(C(=O)O)cc1)c1cc2c(cc1C)C(C)(C)CCC2(C)C [Bexarotene] + CC(C)C[C@H](NC(=O)[C@H](Cc1ccccc1)NC(=O)c1cnccn1)B(O)O [Bortezomib] (partner 0.002 µM)
Summary of the method: as §1

Bexarotene + Navitoclax = compound: C=C(c1ccc(C(=O)O)cc1)c1cc2c(cc1C)C(C)(C)CCC2(C)C [Bexarotene] + CC1(C)CCC(c2ccc(Cl)cc2)=C(CN2CCN(c3ccc(C(=O)NS(=O)(=O)c4ccc(N[C@H](CCN5CCOCC5)CSc5ccccc5)c(S(=O)(=O)C(F)(F)F)c4)cc3)CC2)C1 [Navitoclax] (partner 0.5 µM)
Summary of the method: as §1

Bexarotene + Dasatinib = compound: C=C(c1ccc(C(=O)O)cc1)c1cc2c(cc1C)C(C)(C)CCC2(C)C [Bexarotene] + Cc1nc(Nc2ncc(C(=O)Nc3c(C)cccc3Cl)s2)cc(N2CCN(CCO)CC2)n1 [Dasatinib] (partner 0.075 µM)
Summary of the method: as §1

| Cell Line | relative viability (Bexarotene + Luminespib; first compound 0.08 µM) | relative viability (Bexarotene + Luminespib; first compound 0.253 µM) | relative viability (Bexarotene + Luminespib; first compound 0.8 µM) | relative viability (Bexarotene + Luminespib; first compound 2.53 µM) | relative viability (Bexarotene + Luminespib; first compound 8 µM) | relative viability (Bexarotene + Bortezomib; first compound 0.08 µM) | relative viability (Bexarotene + Bortezomib; first compound 0.253 µM) | relative viability (Bexarotene + Bortezomib; first compound 0.8 µM) | relative viability (Bexarotene + Bortezomib; first compound 2.53 µM) | relative viability (Bexarotene + Bortezomib; first compound 8 µM) | relative viability (Bexarotene + Navitoclax; first compound 0.08 µM) | relative viability (Bexarotene + Navitoclax; first compound 0.253 µM) | relative viability (Bexarotene + Navitoclax; first compound 0.8 µM) | relative viability (Bexarotene + Navitoclax; first compound 2.53 µM) | relative viability (Bexarotene + Navitoclax; first compound 8 µM) | relative viability (Bexarotene + Dasatinib; first compound 0.08 µM) | relative viability (Bexarotene + Dasatinib; first compound 0.253 µM) | relative viability (Bexarotene + Dasatinib; first compound 0.8 µM) | relative viability (Bexarotene + Dasatinib; first compound 2.53 µM) | relative viability (Bexarotene + Dasatinib; first compound 8 µM) |
| --- | --- | --- | --- | --- | --- | --- | --- | --- | --- | --- | --- | --- | --- | --- | --- | --- | --- | --- | --- | --- |
| PC-14 | 0.17 | 0.178 | 0.157 | 0.162 | 0.279 | 0.926 | 0.885 | 0.856 | 0.825 | 0.719 | 1.12 | 1.11 | 0.948 | 0.841 | 0.809 | 0.281 | 0.305 | 0.269 | 0.319 | 0.274 |
| RERF-LC-KJ | 1.17 | 1.23 | 1.1 | 1.1 | 1.07 | 1.17 | 1.12 | 1.03 | 1.06 | 1.17 | 1.07 | 0.934 | 1.08 | 1 | 0.92 | 0.757 | 0.707 | 0.703 | 0.825 | 0.742 |
| SK-LU-1 | 0.201 | 0.188 | – | 0.177 | 0.173 | 1.23 | 1.6 | 0.88 | 1.32 | 1.05 | 1.1 | 0.845 | – | 0.645 | 1.09 | 0.201 | 0.215 | – | 0.2 | 0.203 |
| SW 1573 | 0.252 | 0.216 | 0.222 | 0.615 | 0.242 | 0.896 | 0.923 | 0.955 | 0.803 | 0.763 | 1.07 | 0.777 | 0.731 | 0.735 | 0.598 | 0.593 | 0.467 | 0.402 | 0.301 | 0.41 |
| UMC-11 | 1.04 | 0.983 | 0.866 | 0.911 | 0.969 | 0.877 | 0.796 | 0.8 | 1.03 | 0.637 | 0.347 | 0.268 | 0.306 | 0.305 | 0.284 | 0.485 | 0.516 | 0.516 | 0.514 | 0.493 |
